Test results taken from patent US11000033B2, “Ketone or oxime compound, and herbicide” (NISSAN CHEMICAL CORPORATION, priority 2014, dated 2021).

Key:
Assay type in all cases: in vivo
[1] = system: corn; assay: Test Example 5: effect on crop by foliage application, plastic box (symbol c); conditions: 320 g/ha, 3 weeks after application
Summary of the method: (§1)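 Soil: sterilized diluvial. Container: plastic box, 21 × 13 cm, 7 cm deep. Sowing: spot-like, ~1.5 cm cover. Growth: greenhouse, 25° C. to 30° C.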

[2] = system: beet; assay: Test Example 5: effect on crop by foliage application, plastic box (symbol f); conditions: 320 g/ha, 3 weeks after application
Summary of the method: as §1

[3] = system: Cyperus difformis; assay: Test Example 3: herbicidal effect by foliage application, Wagner pot (symbol E); conditions: application herbicide amount 320 g/ha
Summary of the method: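 Herbicidal activity was rated three weeks after a foliar spray of diluted emulsion concentrate, applied at a predetermined dose to plants grown for 14 days from seed in waterlogged alluvial soil within a 25–30 °C greenhouse.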

[4] = system: transplanted rice plant; assay: Test Example 1: effect on crop, application before weed generation in submerged conditions (symbol a); conditions: application herbicide amount 320 g/ha
Summary of the method: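 Rice at 2.5 leaf stage transplanted into submerged soil (4 cm depth) sown with three weed species; herbicide applied before weed emergence.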

[5] = system: Abutilon theophrasti; assay: Test Example 4: herbicidal effect by soil treatment (symbol M)
Summary of the method: (§2)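 Seeds were sown in sterilized diluvial soil, covered with about 1.5 cm of soil, and the soil surface was sprayed with a water-diluted emulsion of the compound at a predetermined rate. Plants grew in a greenhouse at 25° C. to 30° C.; effects were scored visually 3 weeks after application.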

[6] = system: corn; assay: Test Example 4: effect on crop by soil treatment (symbol c); conditions: for c: corn, effect on crop grade: application herbicide amount 320 g/ha
Summary of the method: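 Sterilized diluvial soil, spot sowing, ~1.5 cm soil cover; greenhouse 25–30° C.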

[7] = system: soybean; assay: Test Example 5: effect on crop by foliage application, plastic box (symbol d); conditions: 320 g/ha, 3 weeks after application
Summary of the method: as §1

[8] = system: Alopecurus myosuroides; assay: Test Example 5: herbicidal effect by foliage application, plastic box (symbol J); conditions: 320 g/ha, 3 weeks after application
Summary of the method: (§3)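 Post-emergence spray; diluvial soil (sterilized), ~1.5 cm seed cover; greenhouse 25–30° C; 14-day-old plants; water-diluted emulsion at predetermined dose; visual score at 3 wk post-treatment.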

[9] = system: Stellaria media; assay: Test Example 4: herbicidal effect by soil treatment (symbol P)
Summary of the method: as §2

[10] = system: Apera spica-venti; assay: Test Example 4: herbicidal effect by soil treatment (symbol L)
Summary of the method: as §2

[11] = system: Scirpus juncoides; assay: Test Example 2: herbicidal activity, application during weed generation in submerged conditions (symbol B); conditions: Table 23; application herbicide amount 320 g/ha; grade 0-5 by criteria of Test Example 1
Summary of the method: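 Visual herbicidal ratings, taken three weeks after dosing, reflect post-emergence water-surface application to seedlings at one to two leaves. Conditions: co-sown weeds in alluvial soil flooded to 4 cm, greenhouse held at 25° C. to 30° C.; compound given as water-diluted emulsion at a fixed herbicide amount.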

[12] = system: Echinochloa crus-galli var. crus-galli; assay: Test Example 4: herbicidal effect by soil treatment (symbol H)
Summary of the method: as §2

[13] = system: Echinochloa crus-galli var. crus-galli; assay: Test Example 5: herbicidal effect by foliage application, plastic box (symbol H); conditions: 320 g/ha, 3 weeks after application
Summary of the method: as §3

[14] = system: rice; assay: Test Example 4: effect on crop by soil treatment (symbol b); conditions: for b: directly sowed rice plant, effect on crop grade: application herbicide amount 320 g/ha
Summary of the method: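 Diluvial soil (sterilized) in boxes; seeds placed spot-wise alongside weed species; ~1.5 cm covering soil. Greenhouse, 25–30° C.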

[15] = application herbicide amount 320 g/ha

SMILES | c: corn, effect on crop grade [1] | f: beet, effect on crop grade [2] | herbicidal effect on E, grade 0-5 [3] | Effect grade on crop, a: transplanted rice plant [4] | M: Abutilon theophrasti, herbicidal effect grade [5, 15] | c: corn, effect on crop grade [6] | d: soybean, effect on crop grade [7] | J: Alopecurus myosuroides, herbicidal effect grade [8] | P: Stellaria media, herbicidal effect grade [9, 15] | L: Apera spica-venti, herbicidal effect grade [10, 15] | Herbicidal effect grade, B: Scirpus juncoides [11] | H: Echinochloa crus-galli var. crus-galli, herbicidal effect grade [12, 15] | H: Echinochloa crus-galli var. crus-galli, herbicidal effect grade [13] | b: directly sowed rice plant, effect on crop grade [14] | other results
CCc1cc(C)cc(C)c1C1=C(O)CC(CC(C)=NOC)C1=O (stereo not drawn) [6-007] | 5 (Herbicidal ratio of 90% or more (almost completely withered)) | 0 (Herbicidal ratio of 5% or lower (almost no effect)) | 5 (Herbicidal ratio of 90% or more (almost completely withered)) | 5 (Herbicidal ratio of 90% or more (almost completely withered)) | 4 (Herbicidal ratio of 70% or higher and lower than 90%) | 5 (Herbicidal ratio of 90% or more (almost completely withered)) | 2 (Herbicidal ratio of 20% or higher and lower than 40%) | 5 (Herbicidal ratio of 90% or more (almost completely withered)) | 0 (Herbicidal ratio of 5% or lower (almost no effect)) | 5 (Herbicidal ratio of 90% or more (almost completely withered)) | 3 (Herbicidal ratio of 40% or higher and lower than 70%) | 5 (Herbicidal ratio of 90% or more (almost completely withered)) | 5 (Herbicidal ratio of 90% or more (almost completely withered)) | 5 (Herbicidal ratio of 90% or more (almost completely withered)) | –
CON=C(C)CC1CC(O)=C(c2c(C)cc(-c3ccc(OC)cc3)cc2C)C1=O (mixture of isomers) [6-017] | 5 (Herbicidal ratio of 90% or more (almost completely withered)) | 0 (Herbicidal ratio of 5% or lower (almost no effect)) | 4 (Herbicidal ratio of 70% or higher and lower than 90%) | 5 (Herbicidal ratio of 90% or more (almost completely withered)) | 0 (Herbicidal ratio of 5% or lower (almost no effect)) | 0 (Herbicidal ratio of 5% or lower (almost no effect)) | 0 (Herbicidal ratio of 5% or lower (almost no effect)) | 5 (Herbicidal ratio of 90% or more (almost completely withered)) | 0 (Herbicidal ratio of 5% or lower (almost no effect)) | 5 (Herbicidal ratio of 90% or more (almost completely withered)) | 3 (Herbicidal ratio of 40% or higher and lower than 70%) | 3 (Herbicidal ratio of 40% or higher and lower than 70%) | 5 (Herbicidal ratio of 90% or more (almost completely withered)) | 3 (Herbicidal ratio of 40% or higher and lower than 70%) | –
CCC(=O)CC1CC(O)=C(c2c(C)cc(C)cc2C)C1=O (stereo not drawn) [2-006] | 0 (Herbicidal ratio of 5% or lower (almost no effect)) | 0 (Herbicidal ratio of 5% or lower (almost no effect)) | 5 (Herbicidal ratio of 90% or more (almost completely withered)) | 3 (Herbicidal ratio of 40% or higher and lower than 70%) | 4 (Herbicidal ratio of 70% or higher and lower than 90%) | 2 (Herbicidal ratio of 20% or higher and lower than 40%) | 0 (Herbicidal ratio of 5% or lower (almost no effect)) | 4 (Herbicidal ratio of 70% or higher and lower than 90%) | 0 (Herbicidal ratio of 5% or lower (almost no effect)) | 5 (Herbicidal ratio of 90% or more (almost completely withered)) | 2 (Herbicidal ratio of 20% or higher and lower than 40%) | 5 (Herbicidal ratio of 90% or more (almost completely withered)) | 4 (Herbicidal ratio of 70% or higher and lower than 90%) | 5 (Herbicidal ratio of 90% or more (almost completely withered)) | –
CCc1cc(C#C[Si](C)(C)C)cc(C)c1C1=C(O)CC(CC(C)=NOC)C1=O (mixture of isomers) [6-008] | 3 (Herbicidal ratio of 40% or higher and lower than 70%) | 0 (Herbicidal ratio of 5% or lower (almost no effect)) | 5 (Herbicidal ratio of 90% or more (almost completely withered)) | 5 (Herbicidal ratio of 90% or more (almost completely withered)) | 0 (Herbicidal ratio of 5% or lower (almost no effect)) | 3 (Herbicidal ratio of 40% or higher and lower than 70%) | 1 (Herbicidal ratio of 5% or higher and lower than 20%) | 5 (Herbicidal ratio of 90% or more (almost completely withered)) | 0 (Herbicidal ratio of 5% or lower (almost no effect)) | 5 (Herbicidal ratio of 90% or more (almost completely withered)) | 5 (Herbicidal ratio of 90% or more (almost completely withered)) | 5 (Herbicidal ratio of 90% or more (almost completely withered)) | 5 (Herbicidal ratio of 90% or more (almost completely withered)) | 5 (Herbicidal ratio of 90% or more (almost completely withered)) | –
CCCC(=O)CC1CC(O)=C(c2c(C)cc(C)cc2C)C1=O (stereo not drawn) [2-021] | 3 (Herbicidal ratio of 40% or higher and lower than 70%) | 0 (Herbicidal ratio of 5% or lower (almost no effect)) | 3 (Herbicidal ratio of 40% or higher and lower than 70%) | 5 (Herbicidal ratio of 90% or more (almost completely withered)) | 1 (Herbicidal ratio of 5% or higher and lower than 20%) | 1 (Herbicidal ratio of 5% or higher and lower than 20%) | 0 (Herbicidal ratio of 5% or lower (almost no effect)) | 5 (Herbicidal ratio of 90% or more (almost completely withered)) | 0 (Herbicidal ratio of 5% or lower (almost no effect)) | 0 (Herbicidal ratio of 5% or lower (almost no effect)) | 2 (Herbicidal ratio of 20% or higher and lower than 40%) | 4 (Herbicidal ratio of 70% or higher and lower than 90%) | 4 (Herbicidal ratio of 70% or higher and lower than 90%) | 5 (Herbicidal ratio of 90% or more (almost completely withered)) | –
CON=C(C)CC1CC(OC(=O)C(C)(C)c2ccc(Cl)cc2)=C(c2c(C)cc(C)cc2C)C1=O (stereo not drawn) [1-148] | – | – | 4 (Herbicidal ratio of 70% or higher and lower than 90%) | 5 (Herbicidal ratio of 90% or more (almost completely withered)) | – | – | – | – | – | – | 4 (Herbicidal ratio of 70% or higher and lower than 90%) | – | – | – | c: corn, effect on crop (criteria 0-5) [1]: 4 (Herbicidal ratio of 70% or higher and lower than 90%); f: beet, effect on crop (criteria 0-5) [2]: 3 (Herbicidal ratio of 40% or higher and lower than 70%); M: Abutilon theophrasti, herbicidal effect grade ([5]; 320 g/ha): 5 (Herbicidal ratio of 90% or more (almost completely withered)); c: corn, effect grade on crop ([6]; 320 g/ha): 3 (Herbicidal ratio of 40% or higher and lower than 70%); d: soybean, effect on crop (criteria 0-5) [7]: 3 (Herbicidal ratio of 40% or higher and lower than 70%); J: Alopecurus myosuroides, herbicidal effect (criteria 0-5) [8]: 5 (Herbicidal ratio of 90% or more (almost completely withered)); P: Stellaria media, herbicidal effect grade ([9]; 320 g/ha): 0 (Herbicidal ratio of 5% or lower (almost no effect)); L: Apera spica-venti, herbicidal effect grade ([10]; 320 g/ha): 5 (Herbicidal ratio of 90% or more (almost completely withered)); H: Echinochloa crus-galli var. crus-galli, herbicidal effect grade ([12]; 320 g/ha): 5 (Herbicidal ratio of 90% or more (almost completely withered)); H: Echinochloa crus-galli var. crus-galli, herbicidal effect (criteria 0-5) [13]: 5 (Herbicidal ratio of 90% or more (almost completely withered)); b: directly sowed rice plant, effect grade on crop ([14]; 320 g/ha): 5 (Herbicidal ratio of 90% or more (almost completely withered))
